“And” between values parts separate entries of the source, which are not always exact repeats. Identical values can stand only once. Like-named read-outs stand apart in the source and are kept apart here.
Columns and labels:
TNXB rs12153855 = assay: ALT case-control genetic association, exploratory study; format: in vivo, human; settings: TNXB rs12153855 CC/CT
Description: (§1) Germline DNA was extracted from peripheral blood (QiAmp DNA Blood Kit, Qiagen, Valencia, Calif.). This study evaluated candidate gene and genome-wide screening, performed in parallel, to detect case-control association signals in the exploratory cohort. Class I and II HLA genes (seven genes to 4-digit and three genes to 2-digit resolution) were typed by Laboratory Corporation of America (Burlington, N.C.) and Histogenetics (Ossining, N.Y.), or at GSK using the LABType® SSO Typing Test (One Lambda, Canoga Park, Calif.). […] Whole genome screen genotyping on the Illumina Human 1M-Duo platform was also conducted (Expression Analysis, Durham, N.C.).
(§2) For the exploratory study, initial analysis of the GWAS was done using logistic regression, carried out in PLINK (Purcell S, et al. American Journal of Human Genetics 2007; 81, 559-575) using the genotypic test option when three genotype classes were observed, or the additive test option when only two genotype classes were observed. […] In addition to the genotype term, all models included baseline ALT xULN, treatment group (for the exploratory study), and a sufficient number of principal components to account for potential confounding by population structure. Principal components were obtained from EIGENSOFT (Patterson N. et al. PLoS Genetics 2006; 2: e190), using study subjects and HapMap founders.
(§3) Genetic markers selected for confirmatory were required to achieve pre-defined p-value thresholds in the exploratory analysis of p≦0.05 for HLA markers, p≦0.01 for candidate gene markers and p≦10-4 for whole genome screen SNPs. For markers confirmed at p≦0.01, measures of potential clinical utility were evaluated. An allele or genotype(s) was designated which conferred a higher risk of ALT elevation and this was compared to the non-risk allele(s)/genotype(s) and the odds ratio (OR), positive predictive value (PPV), and negative predictive value (NPV) calculated.

HLA-DQA1*0201 = settings: for HLA-DQA1*0201 Carrier: Non Cases (number) / HLA-DQA1*0201 Non-Carrier: Non Cases (number) / HLA-DQA1*0201 Carrier: Cases (number) / HLA-DQA1*0201 Non-Carrier: Cases (number) / NPV (CI) / OR (CI) / PPV (CI): confirmatory cohort; for NPV (CI) / OR (CI) / PPV (CI): HLA-DQA1*0201 carriage, cases vs non-cases
Procedure: The two phenotypes that were evaluated were maximum on-treatment liver chemistry values for ALT and TBL with respect to the upper limit of normal. These phenotypes were evaluated in both case-control and quantitative trait analyses while key associations were examined qualitatively in the combined ALT/TBL cases. ALT and TBL cases were defined as maximum on-treatment elevations of ≧3×ULN and ≧1.5×ULN, respectively, and control subjects were defined as maximum on-treatment ALT or TBL of ≦1×ULN. […] Approximately 370 patients with an adequate, fully consented DNA sample had available clinical data for these phenotypes.
as §1, §2, §3

DQA1*0201/DQB1*0201g = assay: ALT case/non-case association with DQ2.2 serotype allele combinations, confirmatory study; format: in vivo, human
Procedure: as §3
HLA Class II peptides form heterodimer proteins where DQA1/DQB1 and DRA/DRB1 combinations create discrete antigen binding sites (Jones E Y, et al. Nature Reviews: Immunology 2006; 6; 271-282). HLA-DRA is functionally monomorphic and no further marker discrimination can be gained by evaluating specific allelic combinations. In contrast, both DQA1*0201 and DQB1*0202 are polymorphic.

UGT1A1*28 = settings: confirmation analysis, lapatinib plus letrozole arm
Procedure: Statistical analyses used for this investigation indicated the following. The two phenotypes that were evaluated were maximum on-treatment liver chemistry values for ALT and TBL with respect to the upper limit of normal. These phenotypes were evaluated in both case-control and quantitative trait analyses while key associations were examined qualitatively in the combined ALT/TBL cases. ALT and TBL cases were defined as maximum on-treatment elevations of ≧3×ULN and ≧1.5×ULN, respectively, and control subjects were defined as maximum on-treatment ALT or TBL of ≦1×ULN. […] Approximately 370 patients with an adequate, fully consented DNA sample had available clinical data for these phenotypes.

[1] = cancer patients receiving lapatinib; cited from earlier work
[2] = On-treatment liver chemistry (ALT, TBL, ALP), exploratory study PGx population, twelve AMBC trials
[3] = DQA1*0201/DQB1*0201g carriage, cases vs non-cases, ALT > 3 xULN, Confirmatory study
[4] = DQA1*0201/DQB1*0201g, ALT > 3 xULN threshold, Confirmatory study
[5] = Exploratory Study ALT Cases (N=37)
[6] = Exploratory Study ALT Cases with HLA Data Available, at time of maximum ALT
[7] = Exploratory Study ALT Controls (N=286)
[8] = Exploratory Study PGx Population (12 trials, N=901), lapatinib monotherapy or combinations
[9] = Exploratory Study PGx Population (N=901)

Procedure for HLA-DRB1*0701: The two phenotypes that were evaluated were maximum on-treatment liver chemistry values for ALT and TBL with respect to the upper limit of normal. These phenotypes were evaluated separately in case-control and quantitative trait analyses and jointly in a combined case-control analysis. ALT and TBL cases were defined as maximum on-treatment elevations of ≧3×ULN and ≧1.5×ULN, respectively, and control subjects were defined as maximum on-treatment ALT or TBL of ≦1×ULN. Approximately 950 patients with an adequate, fully consented DNA sample had available clinical data for these phenotypes. After subject genotyping quality control was completed, a total of 947 patients remained for pharmacogenetic analyses on at least one genetic variant.
Evaluation of HLA genes focused on a subset of the total number of patients consisting of all ALT cases (N=47) and matched controls (N=47).

With `CS(=O)(=O)CCNCc1ccc(-c2ccc3ncnc(Nc4ccc(OCc5cccc(F)c5)c(Cl)c4)c3c2)o1` [lapatinib, N-(3 chloro-4-{[(3-fluorophenyl)methyl]oxy}phenyl)-6-[5-({[2 (methylsulfonyl)ethyl]amino}methyl)-2-furanyl]-4-quinazolinamine bis(4 methylbenzenesulfonate)monohydrate] the “Carriage: cases (%)” value (TNXB rs12153855; ALT cases) was “(35%)”, the “Carriage: cases (n/N)” value (TNXB rs12153855; ALT cases) was 12/34 and the “Carriage: controls (%)” value (TNXB rs12153855; ALT controls) was “(17%)”. The “Carriage: controls (n/N)” value (TNXB rs12153855; ALT controls) was 47/281, the “HLA-DQA1*0201 Carrier: Non Cases (number)” value (HLA-DQA1*0201; ALT Cases > 3 xULN threshold) was 82 and the “HLA-DQA1*0201 Non-Carrier: Non Cases (number)” value (HLA-DQA1*0201; ALT Cases > 3 xULN threshold) was 268. For the same compound, the “HLA-DQA1*0201 Carrier: Cases (number)” value (HLA-DQA1*0201; ALT Cases > 3 xULN) was 17, the “HLA-DQA1*0201 Non-Carrier: Cases (number)” value (HLA-DQA1*0201; ALT Cases > 3 xULN) was 7 and the “HLA-DQA1*0201 Carrier: Non Cases (number)” value (HLA-DQA1*0201; ALT Cases > 5 xULN threshold) was 90. The “HLA-DQA1*0201 Non-Carrier: Non Cases (number)” value (HLA-DQA1*0201; ALT Cases > 5 xULN threshold) was 272, the “HLA-DQA1*0201 Carrier: Cases (number)” value (HLA-DQA1*0201; ALT Cases > 5 xULN) was 9 and the “HLA-DQA1*0201 Non-Carrier: Cases (number)” value (HLA-DQA1*0201; ALT Cases > 5 xULN) was 3. For the same compound, the “HLA-DQA1*0201 Carrier: Non Cases (number)” value (HLA-DQA1*0201; ALT Cases > 8 xULN threshold) was 93, the “HLA-DQA1*0201 Non-Carrier: Non Cases (number)” value (HLA-DQA1*0201; ALT Cases > 8 xULN threshold) was 274 and the “HLA-DQA1*0201 Carrier: Cases (number)” value (HLA-DQA1*0201; ALT Cases > 8 xULN) was 6. The “HLA-DQA1*0201 Non-Carrier: Cases (number)” value (HLA-DQA1*0201; ALT Cases > 8 xULN) was 1, the “% that carry DQA1*0201, Hepatocellular” value (HLA-DQA1*0201; Confirmatory Study ALT Cases) was 83% and the “% that carry DQA1*0201, Mixed” value (HLA-DQA1*0201; Confirmatory Study ALT Cases) was 78%. For the same compound, the “N that carry DQA1*0201, Cholestatic” value (HLA-DQA1*0201; Confirmatory Study ALT Cases) was 0, the “N that carry DQA1*0201, Hepatocellular” value (HLA-DQA1*0201; Confirmatory Study ALT Cases) was 10 and the “N that carry DQA1*0201, Mixed” value (HLA-DQA1*0201; Confirmatory Study ALT Cases) was 7. The “Carriage: cases (n/N)” value (HLA-DQA1*0201; DQA1*0201 carriage, ALT cases (>3xULN), Confirmatory study, lapatinib plus letrozole) was 17/24, the “Carriage: controls (n/N)” value (HLA-DQA1*0201; DQA1*0201 carriage, ALT controls, Confirmatory study, lapatinib plus letrozole) was 33/155 and the PPV (HLA-DQA1*0201; Example 1A analysis: HLA-DQA1*0201, ALT cases vs all non-case subjects, 95% CI 0.11-0.27) was 0.18. The NPV (HLA-DQA1*0201; Example 1A analysis: HLA-DQA1*0201, ALT cases vs all non-case subjects, 95% CI 0.95-0.99) was 0.97, the “NPV (CI)” value (HLA-DQA1*0201; ALT > 3 xULN) was 0.97 (0.95, 0.99) and 0.975 (0.948, 0.990) and the “OR (CI)” value (HLA-DQA1*0201; ALT > 3 xULN) was 7.9 (3.0, 23.3). For the same compound, the “PPV (CI)” value (HLA-DQA1*0201; ALT > 3 xULN) was 0.17 (0.10, 0.26), the “NPV (CI)” value (HLA-DQA1*0201; ALT > 5 xULN) was 0.99 (0.97, 0.9977) and the “OR (CI)” value (HLA-DQA1*0201; ALT > 5 xULN) was 9.1 (2.2, 52.8). The “PPV (CI)” value (HLA-DQA1*0201; ALT > 5 xULN) was 0.09 (0.04, 0.17), the “NPV (CI)” value (HLA-DQA1*0201; ALT > 8 xULN) was 0.9964 (0.98, 0.9999) and the “OR (CI)” value (HLA-DQA1*0201; ALT > 8 xULN) was 17.7 (2.1, 816). For the same compound, the “PPV (CI)” value (HLA-DQA1*0201; ALT > 8 xULN) was 0.06 (0.02, 0.13), the “DQA1*0201 alone carriage in non-cases” value (HLA-DQA1*0201; confirmatory study (82/350)) was 23% and the “cumulative incidence of ALT elevation, DQA1*0201 carriers compared with non-carriers” value (HLA-DQA1*0201; lapatinib plus letrozole treated patients, FIG. 3) was “higher”. The “reduction of the rate of ALT elevation on removal of DQA1*0201 carriers” value (HLA-DQA1*0201; lapatinib plus letrozole treated patients, confirmatory study) was “more than two-thirds”, the “hepatobiliary adverse event cases carrying the DQA1*0201 allele, number” value (HLA-DQA1*0201; of eleven cases that provided DNA) was “six” and the “combined ALT/TBL cases that were HLA-DQA1*0201 carriers” value (HLA-DQA1*0201; restricted baseline (ALT and TBL <=1xULN at baseline)) was 6/6. The “combined ALT/TBL cases that were HLA-DQA1*0201 carriers” value (HLA-DQA1*0201; unrestricted baseline (ALT and/or TBL >1xULN at baseline)) was 1/6, the “HLA Carrier: Cases (number)” value (DQA1*0201/DQB1*0201g; DQA1*0201/DQB1*0201g (DQ2.2 serotype), ALT Cases > 3 xULN, Confirmatory study) was 17 and the “NPV (CI)” value (DQA1*0201/DQB1*0201g; [3]) was 0.976 (0.951, 0.990). For the same compound, the “OR (CI)” value (DQA1*0201/DQB1*0201g; [3]) was 10.2 (3.8, 30.0), the “PPV (CI)” value (DQA1*0201/DQB1*0201g; [3]) was 0.20 (0.12, 0.30) and the “HLA Carrier: Non Cases (number)” value (DQA1*0201/DQB1*0201g; [4]) was 67. The “HLA Non-Carrier: Non Cases (number)” value (DQA1*0201/DQB1*0201g; [4]) was 281, the “HLA Non-Carrier: Cases (number)” value (DQA1*0201/DQB1*0201g; DQA1*0201/DQB1*0201g, ALT Cases > 3 xULN, Confirmatory study) was 7 and the “DQA1*0201/DQB1*0201g allele combinations in ALT cases” value (DQA1*0201/DQB1*0201g; confirmatory study (17/24)) was 71%. For the same compound, the “DQA1*0201/DQB1*0201g allele combinations in non-cases” value (DQA1*0201/DQB1*0201g; confirmatory study (67/348)) was 19%, the “TBL cases carrying TA7/TA7 genotype” value (UGT1A1*28; TBL cases >=1.5xULN (n=21)) was 33% and the “TBL controls carrying TA7/TA7 genotype” value (UGT1A1*28; controls (n=226)) was 4%. For the same compound, the “combined ALT/TBL cases with at least one of the significant HLA alleles” value (HLA-DRB1*0701; exploratory, 4/13 combined cases, HLA-DRB1*0701 or HLA-B*4403) was 31%, the “ALT cases with at least one copy of HLA-DRB1*0701” value (HLA-DRB1*0701; matched case-control, 47 cases) was 40% and the “ALT controls with at least one copy of HLA-DRB1*0701” value (HLA-DRB1*0701; matched case-control, 47 controls) was 13%. For the same compound, the “Grade 3 ALT elevation (Common Toxicity Criteria for Adverse Events, v4.0), patients affected” value [1] was 1.6%, the “Hy's Rule events, patients affected” value [1] was 0.2% and the “Maximum on treatment ALT xULN: Mean(SD)” value [2, 5] was 6.47(6.57) xULN. The “Maximum on treatment ALT xULN: Median” value [2, 5] was 4.70 xULN, the “N of ALT cases with Cholestatic injury type” value [2, 6] was 4 and the “N of ALT cases with Hepatocellular injury type” value [2, 6] was 21. For the same compound, the “N of ALT cases with Mixed injury type” value [2, 6] was 10, the “Maximum on treatment ALT xULN: Mean(SD)” value [2, 7] was 0.59(0.21) xULN and the “Maximum on treatment ALT xULN: Median” value [2, 7] was 0.59 xULN. For the same compound, the “Maximum on treatment ALT xULN: Mean(SD)” value [2, 8] was 1.29 (1.96) xULN, the “Maximum on treatment ALT xULN: Median” value [2, 8] was 0.80 xULN and the “Maximum on treatment ALP xULN: Mean(SD)” value [2, 9] was 1.34 (1.40) xULN. The “Maximum on treatment ALP xULN: Median” value [2, 9] was 0.91 xULN, the “Maximum on treatment ALT > 3 xULN (%)” value [2, 9] was 7.3% and the “Maximum on treatment ALT > 5 xULN (%)” value [2, 9] was 2.7%. The “Maximum on treatment ALT > 8 xULN (%)” value [2, 9] was 1.0% and the “Maximum on treatment TBL xULN: Median” value [2, 9] was 0.68 xULN.

Source: US9539257B2, “Method of treating cancer” (NOVARTIS AG, priority 2009, dated 2017)
